We go through 19 compounds from PubChem BioAssay (NCI).

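Grown in 96-well plates, cells were treated for 48 hours with each compound at five concentrations. Insufficient inhibition: endpoint recorded as highest concentration tested. GI50 marks 50% less growth. TGI denotes the concentration required for complete inhibition of growth.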 A value given as a limit tells only on which side of the number the result lay.

Test in all cases: inhibition of tumour cell growth, NCI panel, 48 h
Assay [1] concerns HCC-2998 colon.
The subject of assay [2] is HL-60(TB) leukemia.
For assay [3], the system named is HT29 colon.
In assay [4] the test system is K-562 leukemia.
Assay [5] concerns KM12 colon.
In assay [6] the test system is MALME-3M melanoma.
Assay [7] relates to NCI-H460 lung.
Assay [8] concerns SNB-19 CNS.
Assay [9] relates to SW-620 colon.

As for `CS(=O)(=O)OCCN1CCN(C(=O)c2cccc3c(Nc4ccc(S(=O)(=O)N=C(N)N)cc4)c4ccccc4nc23)CC1`, the TGI in assay [1], in assay [2], in assay [3], in assay [4], in assay [5] and in assay [6] was more than 100 µM in each case. The TGI in assay [7] and in assay [8] was more than 100 µM in each case.

As for `Clc1ccc(Cc2nc3ccccc3s2)c(Cl)c1`, the TGI in [1] stood at 33.4 µM; in [2], 35.3 µM; in assay [3], 40.3 µM; in assay [4], 36.2 µM; in [5], 34.9 µM; in [6], 30.9 µM. In addition, the values for the TGI in assay [7], in assay [8] and in assay [9] were 41.4 µM, 49.1 µM and 46.4 µM, respectively.

Regarding `COc1ccc(NC(=O)C(=O)Cc2nc3ccc([N+](=O)[O-])cc3[nH]c2=O)c(OC)c1`, the TGI in assay [1], in [2], in assay [3], in assay [4], in [5] and in [6] was more than 100 µM throughout. Also, the TGI in assay [7], in [8] and in assay [9] was more than 100 µM throughout.

Consider `CCCCCCCCCCCCCCN`, for which the TGI in assay [1], in assay [2], in assay [3], in assay [4], in assay [5] and in assay [6] was more than 100 µM each time. The TGI in assay [7] and in assay [9] was more than 100 µM each time.

As for `COc1ccc2c(c1)C(=O)c1c-2n(CCCN=[N+]=[N-])c(=O)c2cc(N(C)C)ccc12`, the GI50 is more than 100 µM in [1]; more than 100 µM in [2]; more than 100 µM in assay [3]; more than 100 µM in [4]; 3.66 µM in assay [5]; more than 100 µM in assay [6]. In addition, the GI50 in assay [7], in assay [8] and in [9] was more than 100 µM in each case. In addition, the TGI in [1], in assay [2], in assay [3], in assay [4], in [5] and in [6] was more than 100 µM throughout. Besides, the TGI in assay [7], in assay [8] and in assay [9] was more than 100 µM in each case.

On to `OC1c2ccccc2C2(O)C1C(c1ccccc1)C(c1ccccc1)C2(O)c1ccccc1` (centres undefined), for which the TGI was found to be 28.6 µM in [1]; 31.9 µM in [2]; 22.8 µM in assay [3]; 50 µM in assay [4]; 25.3 µM in [5]; 26.9 µM in assay [6]. Besides, the figures for the TGI in assay [7], in [8] and in assay [9] were 19.5 µM, more than 100 µM and 52 µM, respectively.

Regarding `O=C(Nc1cccc([N+](=O)[O-])c1)C(=O)C(C(=O)c1ccccc1-c1ccccc1)C1OC(=O)c2ccccc21` (centres undefined), the TGI in assay [1] was 30.5 µM; in assay [2] it was 56.5 µM; in [3] it was more than 100 µM; in assay [4], more than 100 µM; in [5], 44.2 µM; in assay [6], 34.5 µM. For the same compound, the TGI in assay [7] stood at 88 µM; in assay [9], 73.6 µM.

For `COc1ccc2c(c1)/C(=C\c1cccnc1)C(=O)N2`, the GI50 is 24.7 µM in [2]; 13.8 µM in [4]; 19.7 µM in assay [5]; 21 µM in assay [6]; 19.2 µM in assay [7]; 16.2 µM in [8]. Besides, the GI50 in [9] is 41 µM. Further, the TGI in assay [2] was more than 100 µM; in assay [4] it was more than 100 µM; in [5] it was 57.8 µM; in assay [6] it was 47.9 µM; in assay [7], 62.4 µM; in assay [8] it was 51.6 µM. The same compound returned a TGI in [9] of more than 100 µM.

Consider `O=C(Nc1ccc(Cl)cc1Cl)C(=O)C(C(=O)c1ccc2ccccc2c1)C1OC(=O)c2ccccc21` (centres undefined), for which the TGI in assay [2] came to 23.9 µM; in [3] it was 33.1 µM; in assay [5], 31.9 µM; in assay [7] it was 17.3 µM; in assay [8] it was 22.1 µM; in assay [9], 24.9 µM.

With `CC(=O)/C(=C/n1c(=S)[nH]c2ccccc21)C(=O)Nc1ccccc1C`, the TGI in [1], in [2], in assay [3], in assay [5], in [7] and in assay [8] was more than 100 µM throughout. Also, the TGI in assay [9] is more than 100 µM.

For the compound `COc1ccc(-c2cc(=O)c3c(C)cc(C)nc3[nH]2)cc1`, the TGI was more than 100 µM in assay [1]; 35.4 µM in assay [2]; more than 100 µM in assay [3]; more than 100 µM in assay [4]; more than 100 µM in [5]; 88 µM in assay [6]. Further, the TGI in [7], in assay [8] and in [9] was more than 100 µM in each case. Moreover, the GI50 in assay [7] was 40.9 µM.

`O=C(O)COc1ccc(O)c2c1C(=O)CCCC2=O`: the TGI in [1], in assay [2], in [3], in assay [4], in assay [5] and in assay [6] was more than 100 µM each time. Moreover, the TGI in [7], in [8] and in assay [9] was more than 100 µM throughout.

Take `C=CC1[C@H]2COC(C)(C)O[C@@H]2CC(=O)C1(C)C` (some centres undefined): the TGI in assay [1], in assay [2], in assay [3], in assay [5], in assay [6] and in assay [7] was more than 100 µM each time. Further, the TGI in assay [8] and in assay [9] was more than 100 µM throughout.

Consider `Cc1c(S(C)(=O)=O)c(-c2cc(F)cc(N3CCN(c4ccc(NS(=O)(=O)c5ccc(N[C@H](CCN6CCC(C(=O)OCCCP(=O)(O)O)CC6)CSc6ccccc6)c(S(=O)(=O)C(F)(F)F)c5)cc4)CC3)c2)c(-c2ccc(Cl)cc2)n1C(C)C`, for which the GI50 in assay [1] was 2.13 µM; in assay [3], more than 100 µM; in assay [5], more than 100 µM; in assay [6] it was more than 100 µM; in assay [7], more than 100 µM; in [8], 68.1 µM. The GI50 in assay [9] is more than 100 µM. Besides, the TGI in assay [1], in assay [3], in [5], in assay [6], in assay [7] and in [8] was more than 100 µM throughout. The same compound came in with a TGI in [9] of more than 100 µM.

In the case of `CC(=O)Nc1ccc(C(=O)NN2C(=O)C(Cl)C2c2ccc([N+](=O)[O-])cc2)cc1` (centres undefined), the TGI in [2], in assay [3], in assay [4], in assay [6], in assay [7] and in assay [8] was more than 100 µM throughout. Further, the TGI in [9] was more than 100 µM.

In the case of `Nc1nc2c(c(=O)[nH]1)NC(CO)CN2` (centres undefined), the TGI in [2], in assay [3], in assay [4], in assay [5], in [6] and in assay [7] was more than 100 µM throughout. Further, the TGI in assay [8] and in assay [9] was more than 100 µM each time.

With `CCc1cccc(C(C)C)c1NC(=O)C(=O)CC(=O)c1c(C)n([O-])c2ccccc2[n+]1=O`, the TGI in assay [1], in assay [2], in [4], in assay [6], in [7] and in assay [8] was more than 100 µM throughout. The compound also came in with a TGI in assay [9] of more than 100 µM.

As for `O=[N+]([O-])c1ccc(S(=O)Cc2ccccc2)c([N+](=O)[O-])c1` (centres undefined), the GI50 is 16.6 µM in assay [1]; 2.21 µM in assay [2]; 2.56 µM in assay [4]; 15.6 µM in [5]; 1.62 µM in assay [6]; 16.4 µM in [7]. For the same compound, the GI50 in [8] is 14 µM; in assay [9] it was 1.33 µM. For the same compound, the TGI in assay [1] stood at 30.2 µM; in assay [2], 5.2 µM; in assay [4], 6.65 µM; in assay [5] it was 29.4 µM; in assay [6], 3.26 µM; in assay [7], 33.2 µM. In addition, the results for the TGI in assay [8] and in [9] were 27.6 µM and 2.65 µM, respectively.

On to `C1C[OH+]CC[OH+]CCNCC[OH+]CC[OH+]CCN1.[Cl-].[Pt+4]`, for which the GI50 in assay [1], in [3], in [4], in assay [5], in assay [6] and in assay [8] was more than 100 µM each time. Also, the GI50 in [9] is 57.3 µM. Also, the TGI in [1], in [3], in assay [4], in [5], in [6] and in assay [8] was more than 100 µM each time. This compound registered a TGI in assay [9] of more than 100 µM.
